In ChEMBL document CHEMBL1201862, “PubChem BioAssay data set” (2004):
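Tested at 5 concentrations; 48 h exposure; 96-well plates; endpoints linearly interpolated, else capped at highest concentration. GI50 = concentration required for 50% inhibition of growth.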 Active and inactive are the calls of the source. No stated cut-off is given here; in the data, active = GI50 up to about 1.1 µM and inactive = higher.

Key:
Assay in all cases: growth of human tumour cells (NCI), 48 h
OVCAR-3 = system: OVCAR-3
MOLT-4 = system: MOLT-4
SF-295 = system: SF-295
HT-29 = system: HT-29
OVCAR-4 = system: OVCAR-4
COLO 205 = system: COLO 205
RXF 393 = system: RXF 393
CAKI-1 = system: CAKI-1
HCC 2998 = system: HCC 2998
OVCAR-8 = system: OVCAR-8
SNB-19 = system: SNB-19
HL-60 = system: HL-60
OVCAR-5 = system: OVCAR-5
SNB-75 = system: SNB-75
CCRF-CEM = system: CCRF-CEM
HCT-116 = system: HCT-116
SF-539 = system: SF-539
MDA-MB-231 = system: MDA-MB-231
PC-3 = system: PC-3

Structure (SMILES)	GI50 (OVCAR-3)	GI50 (MOLT-4)	GI50 (SF-295)	GI50 (HT-29)	GI50 (OVCAR-4)	GI50 (COLO 205)	GI50 (RXF 393)	GI50 (CAKI-1)	GI50 (HCC 2998)	GI50 (OVCAR-8)	GI50 (SNB-19)	GI50 (HL-60)	GI50 (OVCAR-5)	GI50 (SNB-75)	GI50 (CCRF-CEM)	GI50 (HCT-116)	GI50 (SF-539)	GI50 (MDA-MB-231)	GI50 (PC-3)
Cc1ccnc(NS(=O)(=O)c2ccc(NC3=CC(=O)C(=O)c4ccccc43)cc2)n1	> 100 µM (inactive)	> 100 µM (inactive)	> 100 µM (inactive)	> 100 µM (inactive)	> 100 µM (inactive)	> 100 µM (inactive)	> 100 µM (inactive)	> 100 µM (inactive)	> 100 µM (inactive)	> 100 µM (inactive)	> 100 µM (inactive)	> 100 µM (inactive)	> 100 µM (inactive)	> 100 µM (inactive)	> 100 µM (inactive)	> 100 µM (inactive)	> 100 µM (inactive)		
CC1=COC(=O)c2ccccc2N1	> 100 µM (inactive)		> 100 µM (inactive)	> 100 µM (inactive)	> 100 µM (inactive)	> 100 µM (inactive)	> 100 µM (inactive)	> 100 µM (inactive)	> 100 µM (inactive)	> 100 µM (inactive)	> 100 µM (inactive)	> 100 µM (inactive)	> 100 µM (inactive)	> 100 µM (inactive)	> 100 µM (inactive)	> 100 µM (inactive)	> 100 µM (inactive)		
O=C(Nc1ccc(C(F)(F)F)cc1[N+](=O)[O-])C(=O)C(C(=O)c1ccc2ccccc2c1)C1OC(=O)c2ccccc21 (configuration not stated)	12.8 µM (inactive)	2.26 µM (inactive)	4.85 µM (inactive)	9.08 µM (inactive)	20.6 µM (inactive)	8.75 µM (inactive)	2.94 µM (inactive)	8.26 µM (inactive)	5.89 µM (inactive)	5.07 µM (inactive)	8.51 µM (inactive)	8.28 µM (inactive)	13.3 µM (inactive)	6.97 µM (inactive)	3.7 µM (inactive)	4.36 µM (inactive)	1.63 µM (inactive)		
COc1cc2ccc3c4cc(OC)c(OC)cc4c[n+](C)c3c2cc1O	67.5 µM (inactive)	> 100 µM (inactive)		> 100 µM (inactive)	> 81.8 µM (inactive)	> 90.8 µM (inactive)	> 100 µM (inactive)	> 100 µM (inactive)	> 100 µM (inactive)	32.3 µM (inactive)	3.91 µM (inactive)	> 100 µM (inactive)	> 100 µM (inactive)	15.2 µM (inactive)	> 100 µM (inactive)	> 100 µM (inactive)	> 100 µM (inactive)		
CCOC(=O)C(C(=O)c1ccccc1)=C1NCCN1	> 100 µM (inactive)	> 100 µM (inactive)	> 100 µM (inactive)	> 100 µM (inactive)	> 100 µM (inactive)	> 100 µM (inactive)	> 100 µM (inactive)	> 100 µM (inactive)	> 100 µM (inactive)	> 100 µM (inactive)	> 100 µM (inactive)	> 100 µM (inactive)	> 100 µM (inactive)		> 100 µM (inactive)	> 100 µM (inactive)	> 100 µM (inactive)		
C[Si](C)(C)OC1(C#N)C2C3CC4C2C(=O)C2C4C3C21 (configuration not stated)	> 100 µM (inactive)	> 100 µM (inactive)			> 100 µM (inactive)	> 100 µM (inactive)	> 100 µM (inactive)	> 100 µM (inactive)	> 100 µM (inactive)	> 100 µM (inactive)	> 100 µM (inactive)	> 100 µM (inactive)		> 100 µM (inactive)	> 100 µM (inactive)	> 100 µM (inactive)	> 100 µM (inactive)		
CCOC(=O)c1cc(-c2ccc(Cl)cc2)c([N+](=O)[O-])n1C	> 10 µM (inactive)	> 10 µM (inactive)	> 10 µM (inactive)	> 10 µM (inactive)	> 10 µM (inactive)				> 10 µM (inactive)	> 10 µM (inactive)	> 10 µM (inactive)	> 10 µM (inactive)	> 10 µM (inactive)		> 10 µM (inactive)	> 10 µM (inactive)	> 10 µM (inactive)	0.08 µM (active)	
C=CCCCC1CCCNC1=O (configuration not stated)	> 100 µM (inactive)	> 100 µM (inactive)	> 100 µM (inactive)	> 100 µM (inactive)	> 100 µM (inactive)		> 100 µM (inactive)	> 100 µM (inactive)	> 100 µM (inactive)	> 100 µM (inactive)	> 100 µM (inactive)		> 100 µM (inactive)	> 100 µM (inactive)		> 100 µM (inactive)	> 100 µM (inactive)	> 100 µM (inactive)	> 100 µM (inactive)
CCN1N=CSC12C(=O)N(c1ccccc1)C(=O)N2c1ccccc1 (configuration not stated)	> 100 µM (inactive)	> 100 µM (inactive)	> 100 µM (inactive)	> 100 µM (inactive)	> 100 µM (inactive)	> 100 µM (inactive)	> 100 µM (inactive)	> 100 µM (inactive)	> 100 µM (inactive)	> 100 µM (inactive)	> 100 µM (inactive)	80.5 µM (inactive)		> 100 µM (inactive)	> 100 µM (inactive)	> 100 µM (inactive)	> 100 µM (inactive)		
CC1OC1P(=O)(O)O (configuration not stated)	> 100 µM (inactive)	> 100 µM (inactive)	> 100 µM (inactive)	> 100 µM (inactive)	> 100 µM (inactive)	> 100 µM (inactive)	> 100 µM (inactive)	> 100 µM (inactive)	> 100 µM (inactive)	> 100 µM (inactive)	> 100 µM (inactive)		26.3 µM (inactive)	> 100 µM (inactive)	27.5 µM (inactive)	> 100 µM (inactive)		> 100 µM (inactive)	> 100 µM (inactive)
CC(C)(C)C1CCC(=O)C(C(O)CC2CC(=O)N(c3ccccc3)C(=O)C2)C1 (configuration not stated)	> 100 µM (inactive)	54.5 µM (inactive)	> 100 µM (inactive)	> 100 µM (inactive)	> 100 µM (inactive)	> 100 µM (inactive)	> 100 µM (inactive)	> 100 µM (inactive)	> 100 µM (inactive)	> 100 µM (inactive)	> 100 µM (inactive)	> 100 µM (inactive)	> 100 µM (inactive)	> 100 µM (inactive)	53.1 µM (inactive)	> 100 µM (inactive)	> 100 µM (inactive)		
COc1ccc(S(=O)(=O)N(CC(=O)O)c2ccccc2)cc1	> 100 µM (inactive)	> 100 µM (inactive)	> 100 µM (inactive)	> 100 µM (inactive)	> 100 µM (inactive)	> 100 µM (inactive)	> 100 µM (inactive)	> 100 µM (inactive)	> 100 µM (inactive)	> 100 µM (inactive)	> 100 µM (inactive)	> 100 µM (inactive)	> 100 µM (inactive)	67.3 µM (inactive)	> 100 µM (inactive)		> 100 µM (inactive)		
